Measured values reported in US20250213707A1, “COMPOUND FOR INCREASING EFFICACY OF ONCOLYTIC VIRUSES” (ABLEVIA BIOTECH GMBH, priority 2022, published 2025).
Ends that are not written are not given here.

Experiments:
[1] = system: IgG from human donors (anti-AAV antibodies); assay: Screen for anti-AAV antibodies in human sera, 2452 linear 15-amino-acid AAV peptides on microarrays (Table 1); type: binding; parameters: key to group I: X: the deduplicated aggregate of the respective top 10 peptide hits for each donor was compiled and designated as group I; key to group II: X: the deduplicated aggregate of the respective top 25 peptide hits for each donor was compiled and designated as group II; key to group III: X: the deduplicated aggregate of the respective top 50 peptide hits for each donor was compiled and designated as group III; settings: human donor IgG binding to linear 15-amino-acid AAV peptides on microarray, fluorescence; for group II: membership in deduplicated aggregate of top 25 peptide hits for each donor; for group III: membership in deduplicated aggregate of top 50 peptide hits for each donor; for group I: membership in deduplicated aggregate of top 10 peptide hits for each donor
Procedure, shortened: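 Peptide hits were grouped I to IV by pooling each donor's top 10, 25, 50 or 250 background-corrected fluorescence signals, after deduplication. Signals came from donor IgG, purified on protein G, bound to arrayed 15-residue linear peptides (2452 total) spanning 16 AAV sequences.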

[2] = system: polyclonal antibody ab6982; assay: Epitope mapping of polyclonal antibody ab6982 against cyclic peptides of Ad5 fiber and hexon (peptide array); type: binding, rabbits
Description: Polyclonal antibody ab6982 (Abcam) was generated by immunizing rabbits with purified AdV. It reacts with all capsid proteins of Ad5 including hexon, fiber and penton. It was shown that the antibody neutralizes Ad5 infection in a bioassay at 1000 adenovirus 5 particles/ml, a 50% inactivation of the adenovirus can be achieved at a 1/25,000 dilution of the antibody. In order to identify epitopic regions that could contain peptides for ab6982 paratope binding, the antibody was mapped against the sequences of fiber (NCBI Reference Sequence: AP 000226.1) and hexon protein (GenBank: BAG48782.1). […] The binding signal of this antibody to the array yielded several peptides that were aligned and clustered against the sequence of the protein. The peptide clusters were named cluster1-7 (fiber protein) and clusters8-16 (hexon protein) according to their ranked order of cyclic peptide hits (i.e. cluster contains the strongest binders, cluster2 the second strongest etc.). Below are the aligments of the corresponding peptides that bind to polyclonal antibody ab6982.

[3] = cyclic peptides of fiber protein (clusters 1-7)
[4] = cyclic peptides of hexon protein (clusters 8-16)

| Substance | group II [1] | group III [1] | antibody binding signal ranking from the microarray experiment [2, 3] | group I [1] | antibody binding signal ranking from the microarray experiment [2, 4] |
| --- | --- | --- | --- | --- | --- |
| LQRGNRQAATADVN (REGION 1..14: note = peptide derived from viral capsid protein) [SEQ ID NO: 2026] | X | X | 044 | – | – |
| NLQAANLALGETTR [SEQ ID NO: 2020] | X | X | 016 | – | – |
| NQTDRNAFYCLEYF [SEQ ID NO: 2036] | X | X | 072 | – | – |
| QIFADSSYELPYVM [SEQ ID NO: 2041] | X | X | 112 | – | – |
| AGDNVDYSSVMLTS [SEQ ID NO: 2010] | X | X | 065 | – | – |
| THSTLDGRWSALTP (REGION 1..14: note = peptide derived from viral capsid protein) [SEQ ID NO: 2042] | X | X | 117 | – | – |
| PQILIKNTPVPANP (REGION 1..14: note = peptide derived from viral capsid protein) [SEQ ID NO: 2006] | X | X | 006 | – | – |
| NPVATEQYGSVSTN (REGION 1..14: note = peptide derived from viral capsid protein) [SEQ ID NO: 2005] | X | X | 004 | – | – |
| KRLNFEEDTGAGDG [SEQ ID NO: 2053] | X | X | 022 | – | – |
| KSTSVDFAVNTEGV [SEQ ID NO: 2025] | X | X | 039 | – | – |
| PYLRYHADAEFQER [SEQ ID NO: 2013] | X | X | 118 | – | – |
| TVQIFADSTYELPY [SEQ ID NO: 2039] | X | X | 093 | – | – |
| EGADGVGNASGNWH (REGION 1..14: note = peptide derived from viral capsid protein) [SEQ ID NO: 2046] | X | X | 169 | – | – |
| KKRILEPLGLVEEA [SEQ ID NO: 2023] | X | X | 023 | – | – |
| QQRVSKTSADNNNS (REGION 1..14: note = peptide derived from viral capsid protein) [SEQ ID NO: 2007] | X | X | 015 | – | – |
| TTSGETLNQGNAAT [SEQ ID NO: 2057] | X | X | 079 | – | – |
| STGQVAVQIEWEIE [SEQ ID NO: 2055] | X | X | 049 | – | – |
| KRVLEPLGLVESPV [SEQ ID NO: 2012] | X | X | 085 | – | – |
| EYRTTRPIGTRYLT [SEQ ID NO: 2062] | X | X | 134 | – | – |
| MATNNQSLALGETT [SEQ ID NO: 2022] | X | X | 021 | – | – |

| Substance | group II [1] | group III [1] | antibody binding signal ranking from the microarray experiment [2, 3] | group I [1] | antibody binding signal ranking from the microarray experiment [2, 4] |
| --- | --- | --- | --- | --- | --- |
| LSKTANDNNNSNFP (REGION 1..14: note = peptide derived from viral capsid protein) [SEQ ID NO: 1988] | X | X | 001 | X | – |
| FSAARINSFLTQYS [SEQ ID NO: 2032] | X | X | 059 | – | – |
| YNLQEIVPGSVWME [SEQ ID NO: 2063] | X | X | 143 | – | – |
| IEMRAAPGGNAVDA [SEQ ID NO: 2052] | X | X | 014 | – | – |
| HSQSLDRMMNPLLD [SEQ ID NO: 2033] | X | X | 062 | – | – |
| QQRLSKTANDNNNS [SEQ ID NO: 1993] | X | X | 019 | X | – |
| HSQSLDRLMNPLLD [SEQ ID NO: 2051] | X | X | 008 | – | – |
| PVDQSPQEPDSSSG [SEQ ID NO: 1991] | X | X | 005 | X | – |
| DKFFPMSGVMIFGK (not fully specified) [SEQ ID NO: 2044] | X | X | 147 | – | – |
| EGASYQVPPQPNGM [SEQ ID NO: 2061] | X | X | 108 | – | – |
| GESESVPDPQPIGE [SEQ ID NO: 2058] | X | X | 091 | – | – |
| KGEPVNEADAAALE (REGION 1..14: note = peptide derived from viral capsid protein) [SEQ ID NO: 2003] | X | X | 153 | – | – |
| APGKKRPVEHSPVE (REGION 1..14: note = peptide derived from viral capsid protein) [SEQ ID NO: 1999] | X | X | 061 | X | – |
| MASHKDDEEKFFPM [SEQ ID NO: 1989] | X | X | 002 | X | – |
| KSNNVEFAVNTEGV [SEQ ID NO: 2016] | X | X | 009 | – | – |
| SQSLDRLMNPLLDQ [SEQ ID NO: 2054] | X | X | 028 | – | – |
| 231 (EDEVDEQAEQ) [compound 231] | – | – | – | – | 22 |
| 182 (LNNSFLDPEYWNF) [compound 182] | – | – | 033 | – | – |
| 260 (ALEINLE) [compound 260] | – | – | – | – | 033 |
| 194 (FATSSYTFSY) [compound 194] | – | – | 043 | – | – |

| Substance | group II [1] | group III [1] | antibody binding signal ranking from the microarray experiment [2, 3] | group I [1] | antibody binding signal ranking from the microarray experiment [2, 4] |
| --- | --- | --- | --- | --- | --- |
| 262 (AATALEINLE) [compound 262] | – | – | – | – | 043 |
| 176 (SMSFSWDWSGHNY) [compound 176] | – | – | 176 | – | – |
| 279 (IETPDTHISY) [compound 279] | – | – | – | – | 058 |
| 217 (DEAATALEINLEE) [compound 217] | – | – | – | – | 11 |
| 246 (DDDNEDEVDE) [compound 246] | – | – | – | – | 087 |
| 239 (INLEEEDDDNEDE) [compound 239] | – | – | – | – | 035 |
| 261 (WDEAATALEINLE) [compound 261] | – | – | – | – | 042 |
| 272 (VVLYSEDVDIETP) [compound 272] | – | – | – | – | 049 |
| 207 (EIFATSSYTFSYI) [compound 207] | – | – | 200 | – | – |
| 225 (EDDDNEDEVDEQA) [compound 225] | – | – | – | – | 12 |
| 286 (ETPDTHISYM) [compound 286] | – | – | – | – | 071 |
| 197 (ATSSYTF) [compound 197] | – | – | 080 | – | – |
| 215 (LEINLEEEDD) [compound 215] | – | – | – | – | 08 |
| 221 (ATALEINLEE) [compound 221] | – | – | – | – | 19 |
| 232 (DEVDEQAEQQKTH) [compound 232] | – | – | – | – | 24 |
| 213 (EINLEEE) [compound 213] | – | – | – | – | 06 |
| 271 (DVDIETPDTHISY) [compound 271] | – | – | – | – | 048 |
| 175 (AYSMSFS) [compound 175] | – | – | 167 | – | – |
| 270 (VLYSEDVDIE) [compound 270] | – | – | – | – | 047 |
